Results published in article PMC5891061, “Electrophysiological mechanisms of vandetanib-induced cardiotoxicity: Comparison of action potentials in rabbit Purkinje fibers and pluripotent stem cell-derived cardiomyocytes” (PLoS ONE, 2018).

Columns and labels:
F656A hERG = F656A hERG (Homo sapiens, UniProt Q12809, F656A); test: in vitro; conditions: HEK-293 cells transiently expressing F656A mutant hERG
hERG (IKr) = hERG (IKr) (Homo sapiens, UniProt Q12809); test: Whole-cell patch clamp, IhERG tail current in transfected HEK293 cells
Text: (§1) For various aspects of cardiac ion channel study, human embryonic kidney (HEK293; ATCC, Manassas, VA, USA) cells were transiently transfected using lipofectAmin2000 (Gibco BRL, New York, NY, USA) according to the manufacturer’s instructions. The hERG (human ether-ago-go-related gene corresponding to IKr), KCNQ1/KCNE1 (the gene corresponding to IKs), KCNJ2 (the gene corresponding to IK1) or SCN5A (the gene corresponding to INa) cDNA was co-transfected with green fluorescence protein, the surface marker protein, to allow assessment of the transfection efficiency. For the calcium current, enzymatically isolated single rat ventricular myocytes were used. Briefly, the hearts were rapidly excised from anaesthetized Sprague–Dawley rats (250–350 g) and perfused via the aorta on a Langendorff apparatus with an oxygenated normal Tyrode (NT) solution for 5 min. To clear the blood, then perfused with Ca^2+-free normal Tyrode solution for 3 min. […]
(§2) The external solution for recording the IhERG, IKs and INa channel currents was NT solution. […] The calcium current was measured in naïve rat ventricular myocytes, cells were superfused with an external solution that consisted of (in mM): 137 choline-Cl, 5 CsCl, 0.5 MgCl2, 2 4-AP, 10 HEPES, 10 glucose and 1.8 CaCl2 (pH 7.4 with NaOH), whereas the intracellular solution used to fill the pipette had the following ionic solution (in mM): 20 CsCl, 100 Cs-aspartate, 10 EGTA, 10 HEPES, 20 TEA-Cl, 5 Mg-ATP (pH 7.25 with KOH). […]
pCLAMP (Axon Instruments, Foster City, CA, USA), Origin 8 (OriginLab Corp, Northampton, MA, USA), and Excel (Microsoft, Redmond, WA, USA) were used for data acquisition and analysis. The concentration–response relationships for drug-induced blockage were calculated using SigmaPlot (Systat Software, San Jose, CA, USA). […] Statistical significance was determined using the Student’s t-test and one-way ANOVA with post hoc testing using Dunnett’s method; p < 0.05 was considered to indicate statistical significance. […]

S624A hERG = S624A hERG (Homo sapiens, UniProt Q12809, S624A); conditions: 3 μM
Text: (§3) The hERG mutations were constructed by site-directed mutagenesis of WT hERG cDNA in pcDNA3.1 vector using the QuickChange Site-Directed Mutagenesis Kit (Stratagene), and the integrity of the construct was verified by DNA sequencing. The WT hERG (generously donated by Professor Ho, Seoul National University, Korea) and mutant channels were transiently expressed in an HEK-293 cell line using Lipofectamine 2000 (Gibco), according to the manufacturer’s recommendations.

WT (inward) hERG = WT (inward) hERG (Homo sapiens, UniProt Q12809); conditions: 3 μM, -120 mV, high K+
Text: as §3

[1] = target: WT hERG (inward tail current) (Homo sapiens, UniProt Q12809); conditions: human, HEK-293 cells transiently expressing wild-type hERG
Text: as §3

T623A hERG = T623A hERG (Homo sapiens, UniProt Q12809, T623A); conditions: 3 μM
Text: as §3

KCNJ2 (IK1) = target: T1, KCNJ2 (IK1) (Homo sapiens, UniProt P63252); test: cell-based
T1 sequence (P63252 1-427): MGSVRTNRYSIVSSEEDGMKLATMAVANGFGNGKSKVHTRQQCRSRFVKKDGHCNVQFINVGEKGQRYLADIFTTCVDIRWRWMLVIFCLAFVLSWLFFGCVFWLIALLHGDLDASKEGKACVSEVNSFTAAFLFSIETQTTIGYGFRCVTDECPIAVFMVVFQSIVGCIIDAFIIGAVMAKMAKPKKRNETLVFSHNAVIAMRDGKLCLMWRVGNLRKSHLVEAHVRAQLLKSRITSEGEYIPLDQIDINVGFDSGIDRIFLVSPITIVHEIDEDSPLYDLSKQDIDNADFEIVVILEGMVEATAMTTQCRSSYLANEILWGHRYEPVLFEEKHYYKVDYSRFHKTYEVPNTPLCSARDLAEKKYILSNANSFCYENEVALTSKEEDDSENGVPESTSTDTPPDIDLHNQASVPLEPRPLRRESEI
Text: as §1, with “min.” for “min. To clear the blood, then perfused with Ca^2+-free normal Tyrode solution for 3 min.”
as §2

## COc1cc2c(Nc3ccc(Br)cc3F)ncnc2cc1OCC1CCN(C)CC1 [Vandetanib]
F656A hERG
  inhibition at 3 μM: 27.4 ± 4.8%
hERG (IKr); 0.3 μM
  Reduction of IhERG current amplitude: 17.04%
hERG (IKr); 1 μM
  Reduction of IhERG current amplitude: 45.32%
hERG (IKr); 3 μM
  Reduction of IhERG current amplitude: 76.05%
S624A hERG
  S624A hERG current: 78.1 ± 31.0
WT (inward) hERG
  WT (inward) hERG current: -1818.9 ± 217.3
[1]
  inhibition at 3 μM: 69 ± 1.8%
T623A hERG
  T623A hERG current: 266.1 ± 117.0
KCNJ2 (IK1)
  IC50: 94.5 ± 4.57 µM
